SMILES strings stand for the structures.

Results on 38 compounds are retold here after patent publication US20100267697A1, “ION CHANNEL MODULATORS” (Wyeth, priority 2006, published 2010).

The assay deals with T1, human Cav2.2 (composed of the subunits α1, β3 and α2δ) (Homo sapiens, UniProt Q00975).
T1 construct: expressed in transfected cells
Kind of assay: FLIPR assay (TSA201 cells stably transfected with human Cav2.2 and human Kir2.3, FLUO-4 Ca2+ signal, KCl depolarization). Format: cell-based. The following applies: 70 mM KCl depolarization, average value. In a few lines: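 TSA201 cells co-expressing Cav2.2 (α1, β3, α2δ) and Kir2.3 were loaded with FLUO-4 for 1 h at room temperature. Compound in HBSS with 1% DMSO was preincubated 15 min, then cells were depolarized with 70 mM final KCl (with CaCl2 and HEPES) and the Ca2+ fluorescence was read on FLIPR.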

T1 sequence (Q00975 whole entry): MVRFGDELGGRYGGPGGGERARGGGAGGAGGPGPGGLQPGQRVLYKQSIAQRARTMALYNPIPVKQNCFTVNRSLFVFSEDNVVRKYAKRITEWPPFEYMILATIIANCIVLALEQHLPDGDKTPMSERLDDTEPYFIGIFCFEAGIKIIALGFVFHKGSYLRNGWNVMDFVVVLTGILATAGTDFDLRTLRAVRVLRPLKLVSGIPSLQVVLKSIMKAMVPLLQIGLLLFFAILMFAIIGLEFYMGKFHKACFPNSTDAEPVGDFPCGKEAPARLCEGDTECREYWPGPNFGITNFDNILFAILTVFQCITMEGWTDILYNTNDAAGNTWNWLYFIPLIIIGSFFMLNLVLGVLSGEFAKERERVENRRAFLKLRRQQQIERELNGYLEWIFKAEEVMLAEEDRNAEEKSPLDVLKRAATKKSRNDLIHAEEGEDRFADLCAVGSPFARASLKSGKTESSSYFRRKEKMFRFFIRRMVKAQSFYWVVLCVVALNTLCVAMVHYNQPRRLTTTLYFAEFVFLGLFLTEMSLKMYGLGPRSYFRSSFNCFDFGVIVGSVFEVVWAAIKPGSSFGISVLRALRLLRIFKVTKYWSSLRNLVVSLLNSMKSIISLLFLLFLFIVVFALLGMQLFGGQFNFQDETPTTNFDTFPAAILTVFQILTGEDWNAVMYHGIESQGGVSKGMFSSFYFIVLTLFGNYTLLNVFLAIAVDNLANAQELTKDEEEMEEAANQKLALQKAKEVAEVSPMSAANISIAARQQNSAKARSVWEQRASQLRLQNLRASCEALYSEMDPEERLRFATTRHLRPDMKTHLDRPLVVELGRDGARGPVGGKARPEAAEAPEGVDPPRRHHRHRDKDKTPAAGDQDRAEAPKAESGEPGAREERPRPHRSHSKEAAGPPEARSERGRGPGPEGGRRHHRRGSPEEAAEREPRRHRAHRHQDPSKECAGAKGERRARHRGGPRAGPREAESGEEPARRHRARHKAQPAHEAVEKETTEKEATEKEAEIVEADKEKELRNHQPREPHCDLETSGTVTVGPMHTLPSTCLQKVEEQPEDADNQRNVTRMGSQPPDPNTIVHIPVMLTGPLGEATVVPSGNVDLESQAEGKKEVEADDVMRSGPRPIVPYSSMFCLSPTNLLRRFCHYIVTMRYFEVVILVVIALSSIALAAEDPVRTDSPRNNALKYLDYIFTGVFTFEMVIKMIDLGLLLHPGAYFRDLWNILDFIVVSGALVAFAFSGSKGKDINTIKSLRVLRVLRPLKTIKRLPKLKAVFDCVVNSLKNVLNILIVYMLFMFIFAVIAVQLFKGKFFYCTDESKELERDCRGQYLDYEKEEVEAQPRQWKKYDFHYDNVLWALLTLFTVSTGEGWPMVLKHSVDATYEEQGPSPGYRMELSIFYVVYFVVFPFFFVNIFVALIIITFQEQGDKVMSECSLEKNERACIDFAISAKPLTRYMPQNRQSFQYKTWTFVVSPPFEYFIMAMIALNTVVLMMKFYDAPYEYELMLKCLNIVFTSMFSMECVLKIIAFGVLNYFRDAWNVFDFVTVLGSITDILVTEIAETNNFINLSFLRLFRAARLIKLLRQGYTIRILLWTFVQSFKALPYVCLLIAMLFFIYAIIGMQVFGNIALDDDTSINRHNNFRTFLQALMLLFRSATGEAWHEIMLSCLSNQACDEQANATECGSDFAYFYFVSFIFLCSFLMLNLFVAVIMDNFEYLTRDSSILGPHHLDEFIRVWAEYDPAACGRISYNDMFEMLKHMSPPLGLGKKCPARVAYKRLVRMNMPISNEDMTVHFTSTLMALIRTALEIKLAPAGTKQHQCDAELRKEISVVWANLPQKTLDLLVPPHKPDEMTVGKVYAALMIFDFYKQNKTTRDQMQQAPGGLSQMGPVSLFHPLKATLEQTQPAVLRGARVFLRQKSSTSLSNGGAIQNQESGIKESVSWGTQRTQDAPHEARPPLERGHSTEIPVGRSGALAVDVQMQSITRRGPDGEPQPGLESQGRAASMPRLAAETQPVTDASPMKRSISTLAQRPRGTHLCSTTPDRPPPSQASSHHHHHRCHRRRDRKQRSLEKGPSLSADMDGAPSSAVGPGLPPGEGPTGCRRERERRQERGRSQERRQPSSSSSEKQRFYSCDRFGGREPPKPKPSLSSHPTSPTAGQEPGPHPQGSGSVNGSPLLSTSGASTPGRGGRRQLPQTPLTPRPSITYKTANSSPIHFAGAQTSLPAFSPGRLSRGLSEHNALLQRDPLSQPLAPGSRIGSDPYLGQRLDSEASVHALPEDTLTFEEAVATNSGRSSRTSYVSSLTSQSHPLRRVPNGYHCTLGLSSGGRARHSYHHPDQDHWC
T1 sequence (P54284 whole entry partner): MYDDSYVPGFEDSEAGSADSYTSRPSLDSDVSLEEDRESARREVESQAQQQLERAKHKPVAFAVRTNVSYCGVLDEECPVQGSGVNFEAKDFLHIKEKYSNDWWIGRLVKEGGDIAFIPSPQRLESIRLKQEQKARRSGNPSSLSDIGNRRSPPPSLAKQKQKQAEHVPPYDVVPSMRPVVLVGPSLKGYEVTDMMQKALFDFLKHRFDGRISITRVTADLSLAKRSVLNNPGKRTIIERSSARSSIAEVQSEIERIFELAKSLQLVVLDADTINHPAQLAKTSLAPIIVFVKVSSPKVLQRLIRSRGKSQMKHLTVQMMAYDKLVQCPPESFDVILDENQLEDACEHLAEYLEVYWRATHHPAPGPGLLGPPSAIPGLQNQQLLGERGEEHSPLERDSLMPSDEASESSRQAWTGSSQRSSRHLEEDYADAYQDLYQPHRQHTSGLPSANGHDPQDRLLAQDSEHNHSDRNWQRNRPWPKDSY
T1 sequence (P54289 25-946 partner limits assumed): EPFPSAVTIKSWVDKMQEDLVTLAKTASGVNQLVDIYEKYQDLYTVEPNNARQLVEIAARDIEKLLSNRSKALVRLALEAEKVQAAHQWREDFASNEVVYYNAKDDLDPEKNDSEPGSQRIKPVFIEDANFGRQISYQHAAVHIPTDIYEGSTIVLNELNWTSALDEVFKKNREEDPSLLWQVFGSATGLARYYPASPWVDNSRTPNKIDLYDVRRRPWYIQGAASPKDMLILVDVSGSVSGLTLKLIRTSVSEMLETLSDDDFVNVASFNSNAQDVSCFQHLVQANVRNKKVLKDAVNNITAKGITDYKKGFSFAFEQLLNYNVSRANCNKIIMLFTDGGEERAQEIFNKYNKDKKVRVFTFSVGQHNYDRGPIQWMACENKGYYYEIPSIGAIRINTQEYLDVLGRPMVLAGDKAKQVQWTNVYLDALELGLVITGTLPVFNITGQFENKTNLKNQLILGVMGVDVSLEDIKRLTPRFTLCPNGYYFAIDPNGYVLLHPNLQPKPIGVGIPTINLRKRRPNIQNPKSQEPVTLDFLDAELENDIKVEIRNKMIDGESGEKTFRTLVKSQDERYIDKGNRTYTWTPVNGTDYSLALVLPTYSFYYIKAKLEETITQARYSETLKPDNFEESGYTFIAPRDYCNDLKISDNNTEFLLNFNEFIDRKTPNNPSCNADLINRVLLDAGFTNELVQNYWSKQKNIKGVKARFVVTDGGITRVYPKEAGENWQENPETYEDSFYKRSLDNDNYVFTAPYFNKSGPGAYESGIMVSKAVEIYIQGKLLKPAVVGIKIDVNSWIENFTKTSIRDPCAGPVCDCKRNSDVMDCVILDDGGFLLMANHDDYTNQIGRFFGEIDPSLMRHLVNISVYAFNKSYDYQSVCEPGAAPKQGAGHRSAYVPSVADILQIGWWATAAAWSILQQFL
T1 sequence (P54289 947-1103 partner limits assumed): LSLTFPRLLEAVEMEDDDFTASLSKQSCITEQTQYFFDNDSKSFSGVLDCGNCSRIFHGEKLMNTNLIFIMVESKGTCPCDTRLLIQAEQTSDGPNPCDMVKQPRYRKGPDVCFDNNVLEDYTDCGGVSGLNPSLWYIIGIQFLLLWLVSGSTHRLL

Consider `CC(C)(C)C(=O)N(Cc1csc(N2CCCC(O)C2)n1)c1ccc(F)cc1` (centres unmarked) [Compound 186, N-(4-fluroophenyl)-N-{[2-(3-hydroxypiperidin-1-yl)-1,3-thiazol-4-yl]methyl}-2,2-dimethylpropanamide], for which the IC50 (commonly the concentration needed to halve the response being measured) amounted to 5.6 µM.
On to `CC(C)(C)C(=O)N(Cc1csc(N2CCCC(CO)C2)n1)c1ccc(F)cc1` (centres unmarked) [Compound 187, N-(4-fluorophenyl)-N-({2-[3-(hydroxymethyl)piperidin-1-yl]-1,3-thiazol-4-yl}methyl)-2,2-dimethylpropanamide], for which the IC50 was 3 µM.
The figure for `CC(C)(C)C(=O)N(Cc1csc(N2CCC(C#N)CC2)n1)c1ccc(F)cc1` [Compound 188, N-{[2-(4-cyanopiperidin-1-yl)-1,3-thiazol-4-yl]methyl}-N-(4-fluorophenyl)-2,2-dimethylpropanamide] is 3.8 µM; for `CC(C)(C)C(=O)N(Cc1csc(N2CCSCC2)n1)c1ccc(F)cc1` [Compound 189, N-(4-fluorophenyl)-2,2-dimethyl-N-[(2-thiomorpholin-4-yl-1,3-thiazol-4-yl)methyl]propanamide] it is 1.6 µM.
As for `CC1CC(C)CN(c2nc(CN(C(=O)C(C)(C)C)c3ccc(F)cc3)cs2)C1` (centres unmarked) [Compound 190, N-{[2-(3,5-dimethylpiperidin-1-yl)-1,3-thiazol-4-yl]methyl}-N-(4-fluorophenyl)-2,2-dimethylpropanamide], half-maximal inhibition (IC50) was put at 2.2 µM.
The same measure for `CC1CCN(c2nc(CN(C(=O)C(C)(C)C)c3ccc(F)cc3)cs2)CC1` [Compound 192, N-(4-fluorophenyl)-2,2-dimethyl-N-{[2-(4-methylpiperidin-1-yl)-1,3-thiazol-4-yl]methyl}propanamide]: 1.9 µM; for `CC(C)(C)C(=O)N(Cc1csc(N2CCC(c3ccccc3)CC2)n1)c1ccc(F)cc1` [Compound 193, N-(4-fluorophenyl)-2,2-dimethyl-N-{[2-(4-phenylpiperidin-1-yl)-1,3-thiazol-4-yl]methyl}propanamide]: 3.1 µM.
Turning to `CC(C)(C)C(=O)N(Cc1cnc(N2CCCCC2)s1)c1ccc(F)cc1` [Compound 194, N-(4-fluorophenyl)-2,2-dimethyl-N-[(2-piperidin-1-yl-1,3-thiazol-5-yl)methyl]propanamide], the midpoint of inhibition, the IC50, lay at 3.2 µM.
The compound `CC(C)(C)C(=O)N(Cc1ccc(Cl)nc1)c1ccc(F)cc1` [Compound 195, N-[(6-chloropyridin-3-yl)methyl]-N-(4-fluorophenyl)-2,2-dimethylpropanamide] gave an IC50 of 10.1 µM.
The compound `CC(C)(C)C(=O)N(Cc1ccc(N2CCOCC2)nc1)c1ccc(F)cc1` [Compound 196, N-(4-fluorophenyl)-2,2-dimethyl-N-[(6-morpholin-4-ylpyridin-3-yl)methyl]propanamide] gave an IC50 of 13.8 µM.
The same measure for `CCN(c1nc(CN(C(C)=O)C2CCCCC2)cs1)C1CC1` [Compound 197, N-cyclohexyl-N-({2-[cyclopropyl(ethyl)amino]-1,3-thiaozl-4-yl}methyl)acetamide]: 5.7 µM.
The figure for `CCN(c1nc(CN(C(=O)C2CCCCC2)C2CCCCC2)cs1)C1CC1` [Compound 198, N-cyclohexyl-N-({2-[cyclopropyl(ethyl)amino]-1,3-thiazol-4-yl}methyl)cyclohexanecarboxamide] is 3.3 µM.
In turn, `CC(=O)N(Cc1csc(N2CCOCC2)n1)C1CCCCC1` [Compound 199, N-cyclohexyl-N-[(2-morpholin-4-yl-1,3-thiazol-4-yl)methyl]acetamide] registered an IC50 of 27.2 µM.
`O=C(C1CCCCC1)N(Cc1csc(N2CCOCC2)n1)C1CCCCC1` [Compound 200, N-cyclohexyl-N-[(2-morpholin-4-yl-1,3-thiazol-4-yl)methyl]cyclohexanecarboxamide]: inhibition was half-maximal at 6.3 µM (IC50).
The figure for `O=C(Cc1ccccc1)N(Cc1csc(N2CCOCC2)n1)C1CCCCC1` [Compound 201, N-cyclohexyl-N-[(2-morpholin-4-yl-1,3-thiazol-4-yl)methyl]-2-phenylacetamide] is 9.7 µM; for `CC(C)(C)OC(=O)c1cccc(-c2ccc(CN(C(=O)C(C)(C)C)c3ccc(F)cc3)cn2)c1` [Compound 202, tert-butyl 3-(5-{[(2,2-dimethylpropanoyl)(4-fluorophenyl)amino]methyl}pyridin-2-yl)benzoate] it is 11.1 µM; for `CC(C)(C)C(=O)N(Cc1ccc(-c2cccc(C(=O)O)c2)nc1)c1ccc(F)cc1` [Compound 203, 3-(5-{[(2,2-dimethylpropanoyl)(4-fluorophenyl)amino]methyl}pyridin-2-yl)benzoic acid] it is 39 µM.
As for `CC(C)(C)C(=O)N(Cc1csc(N2CCOCC2)n1)C1CCCCC1` [Compound 204, N-cyclohexyl-2,2-dimethyl-N-[(2-morpholin-4-yl-1,3-thiazol-4-yl)methyl]propanamide], the 50% inhibitory concentration (IC50) turned out to be 11.4 µM.
The figure for `CCN(c1nc(CN(C(=O)C(C)(C)C)C2CCCCC2)cs1)C1CC1` [Compound 205, N-cyclohexyl-N-({2-[cyclopropyl(ethyl)amino]-1,3-thiazol-4-yl}methyl)-2,2-dimethylpropanamide] is 2.1 µM.
Compound `CC(C)(C)C(=O)N(Cc1csc(C2CCCCC2)n1)c1ccc(F)cc1` [Compound 206, N-[(2-cyclohexyl-1,3-thiazol-4-yl)methyl]-N-(4-fluorophenyl)-2,2-dimethylpropanamide] displayed an IC50 of 6.1 µM.
In turn, `O=C(C1CC1)N(Cc1csc(N2CCOCC2)n1)c1ccc(F)cc1` [Compound 207, N-(4-fluorophenyl)-N-[(2-morpholin-4-yl-1,3-thiazol-4-yl)methyl]cyclopropanecarboxamide] yielded an IC50 of 23.9 µM.
On to `CC(C)C(=O)N(Cc1csc(N2CCOCC2)n1)c1ccc(F)cc1` [Compound 208, N-(4-fluorophenyl)-2-methyl-N-[(2-morpholin-4-yl-1,3-thiazol-4-yl)methyl]propanamide], for which the IC50 worked out at 22.2 µM.
The compound `CC(C)(C)OC(=O)N1CCC(c2nc(CN(C(=O)C(C)(C)C)c3ccc(F)cc3)cs2)CC1` [Compound 209, tert-butyl 4-(4-{[(2,2-dimethylpropanoyl)(4-fluorophenyl)amino]methyl}--1,3-thiazol-2-yl)piperidine-1-carboxylate] yielded an IC50 of 2.7 µM.
The figure for `CCN(c1nc(CN(C(C)=O)c2ccc(F)cc2)cs1)C1CC1` [Compound 210, N-({2-[cyclopropyl(ethyl)amino]-1,3-thiazol-4-yl}methyl)-N-(4-fluorophenyl)acetamide] is 9.1 µM; for `CCN(c1nc(CN(C(=O)C2CCCCC2)c2ccc(F)cc2)cs1)C1CC1` [Compound 211, N-({2-[cyclopropyl(ethyl)amino]-1,3-thiazol-4-yl}methyl)-N-(4-fluorophenyl)cyclohexanecarboxamide] it is 2.4 µM; for `CC(C)(C)C(=O)N(CCc1csc(N2CCOCC2)n1)c1ccc(F)cc1` [Compound 212, N-(4-flurophenyl)-2,2-dimethyl-N-[2-(2-morpholin-4-yl-1,3-thiazol-4-yl)ethyl]propanamide] it is 5.9 µM.
Compound `CC(C)(C)C(=O)N(CCCc1csc(N2CCOCC2)n1)c1ccc(F)cc1` [Compound 213, N-(4-fluorophenyl)-2,2-dimethyl-N-[3-(2-morpholin-4-yl-1,3-thiazol-4-yl)propyl]propanamide] showed an IC50 of 3.8 µM.
The figure for `CC(=O)N(Cc1csc(Br)n1)c1ccc(F)cc1` [Compound 214, N-[(2-bromo-1,3-thiazol-4-yl)methyl]-N-(4-fluorophenyl)acetamide] is 48.7 µM.
`CC(=O)N(Cc1ccc(Cl)nc1)c1ccc(F)cc1` [Compound 215, N-[(6-chloropyridin-3-yl)methyl]-N-(4-fluorophenyl)acetamide] registered an IC50 of 21.4 µM.
Compound `CC(=O)N(Cc1csc(N2CCN(C)CC2)n1)c1ccc(F)cc1` [Compound 216, N-(4-fluorophenyl)-N-{[2-(4-methylpiperazin-1-yl)-1,3-thiazol-4-yl]methyl}acetamide] showed an IC50 of 29.4 µM.
The figure for `CC(=O)N(Cc1csc(N2CCCN(C)CC2)n1)c1ccc(F)cc1` [Compound 217, N-(4-fluorophenyl)-N-{[2-(4-methyl-1,4-diazepan-1-yl)-1,3-thiazol-4-yl]methyl}acetamide] is 29.5 µM; for `CC(=O)N(Cc1csc(N2CCOCC2)n1)c1ccc(F)cc1` [Compound 218, N-(4-fluorophenyl)-N-[(2-morpholin-4-yl-1,3-thiaozl-4-yl)methyl]acetamide] it is 23.4 µM.
The figure for `CCN(CC)c1nc(CN(C(C)=O)c2ccc(F)cc2)cs1` [Compound 219, N-{[2-(diethylamino)-1,3-thiaozl-4-yl]methyl}-N-(4-fluorophenyl)acetamide] is 8.7 µM.
For `CC(=O)N(Cc1csc(N2CCC(C#N)CC2)n1)c1ccc(F)cc1` [Compound 220, N-{[2-(4-cyanopiperidin-1-yl)-1,3-thiazol-4-yl]methyl}-N-(4-fluorophenyl)acetamide], the IC50 was 16.6 µM.
The same measure for `CC(=O)N(Cc1csc(N(C)CCO)n1)c1ccc(F)cc1` [Compound 221, N-(4-fluorophenyl)-N-({2-[(2-hydroxyethyl)(methyl)amino]-1,3-thiazol-4-yl}methyl)acetamide]: 37 µM; for `CC(=O)N(Cc1csc(N2CCC(O)CC2)n1)c1ccc(F)cc1` [Compound 222, N-(4-fluorophenyl)-N-{[2-(4-hydroxypiperidin-1-yl)-1,3-thiazol-4-yl]methyl}acetamide]: 22.4 µM; for `CC(=O)N(Cc1csc(N2CCCC(O)C2)n1)c1ccc(F)cc1` (centres unmarked) [Compound 223, N-(4-fluorophenyl)-N-{[2-(3-hydroxypiperidin-1-yl)-1,3-thiazol-4-yl]methyl}acetamide]: 31.4 µM.
Regarding `CC(=O)N(Cc1csc(N2CCC(CO)CC2)n1)c1ccc(F)cc1` [Compound 224, N-(4-fluorophenyl)-N-({2-[4-(hydroxymethyl)piperidin-1-yl]-1,3-thiazol-4-yl}methyl)acetamide], the IC50 is 12.3 µM.
